The values below are quoted from earlier work in US20180185484A1, “PREPARATION AND USE OF PLATELET PRODUCTS” (Cerus Corporation, priority 2015, published 2018).

SMILES strings stand for the structures.

The test system of the data set is T lymphocytes. As to conditions: treated platelet preparations, after photoactivation; Grass et al., 1998.

`Cc1oc2c(C)c3oc(=O)cc(C)c3cc2c1COCCN` [amotosalen, 4′-(4-amino-2-oxa)butyl-4,5′,8-trimethylpsoralen]: the “reduction of viable T lymphocytes” value is given as “greater than 5 logs”.
